Assay results published in ChEMBL document CHEMBL1137921, “Substrate analogs for the investigation of deoxyxylulose 5-phosphate reductoisomerase inhibition: synthesis and evaluation” (Bioorg Med Chem Lett, 2004).

T1: 1-deoxy-D-xylulose 5-phosphate reductoisomerase (Synechocystis sp. (strain PCC 6803 / Kazusa), UniProt Q55663)
T1 sequence (Q55663 whole entry): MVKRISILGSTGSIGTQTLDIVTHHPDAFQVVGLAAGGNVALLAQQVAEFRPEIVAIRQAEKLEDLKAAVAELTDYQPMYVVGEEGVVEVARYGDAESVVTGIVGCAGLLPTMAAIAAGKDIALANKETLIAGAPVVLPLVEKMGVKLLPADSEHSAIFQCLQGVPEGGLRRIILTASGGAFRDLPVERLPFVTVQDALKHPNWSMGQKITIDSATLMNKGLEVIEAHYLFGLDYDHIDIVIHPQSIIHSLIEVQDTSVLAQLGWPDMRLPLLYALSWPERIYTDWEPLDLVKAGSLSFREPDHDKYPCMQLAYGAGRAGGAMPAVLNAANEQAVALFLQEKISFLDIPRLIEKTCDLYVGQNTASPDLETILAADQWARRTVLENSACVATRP

T2: 1-deoxy-D-xylulose 5-phosphate reductoisomerase (Escherichia coli K-12, UniProt P45568)
T2 sequence (P45568 whole entry): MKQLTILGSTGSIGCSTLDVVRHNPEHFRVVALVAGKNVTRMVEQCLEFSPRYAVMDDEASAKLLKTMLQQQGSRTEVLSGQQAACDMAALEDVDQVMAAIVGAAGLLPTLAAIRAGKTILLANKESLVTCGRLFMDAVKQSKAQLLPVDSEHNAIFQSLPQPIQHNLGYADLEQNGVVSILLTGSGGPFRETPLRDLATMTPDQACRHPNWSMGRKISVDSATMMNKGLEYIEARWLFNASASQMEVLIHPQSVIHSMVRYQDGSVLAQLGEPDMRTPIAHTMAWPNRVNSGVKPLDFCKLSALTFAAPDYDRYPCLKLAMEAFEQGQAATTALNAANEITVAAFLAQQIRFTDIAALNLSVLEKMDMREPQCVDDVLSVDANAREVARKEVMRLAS


How the values were obtained:
[1] = molecular target: T1, 1-deoxy-D-xylulose 5-phosphate reductoisomerase; experiment: Binding affinity against Synechocystis strain PCC6803 DXP reductoisomerase; design: species or system Synechocystis sp. PCC 6803
[2] = molecular target: T2, 1-deoxy-D-xylulose 5-phosphate reductoisomerase; experiment: Inhibitory activity against Escherichia coli deoxyxylulose 5-phosphate reductoisomerase
[3] = substrate: CC(=O)[C@@H](O)[C@H](O)CCP(=O)(O)O; experiment: Michaelis-Menten constant for Synechocystis strain PCC6803 DXP reductoisomerase; conditions: Synechocystis sp. PCC 6803

Molecule | Ki [1] | Ki [2] | Km [3]
CC(=O)[C@@H](O)[C@@H](O)COP(=O)(O)O | 180 µM |  | 
CCC(=O)[C@@H](O)[C@H](O)COP(=O)(O)O | 630 µM |  | 
1-deoxy-D-xylulose 5-phosphate reductoisomerase (Synechocystis sp. (strain PCC 6803 / Kazusa)), Q55663 (protein) MVKRISILGSTGSIGTQTLDIVTHHPDAFQVVGLAAGGNVALLAQQVAEFRPEIVAIRQAEKLEDLKAAVAELTDYQPMYVVGEEGVVEVARYGDAESVVTGIVGCAGLLPTMAAIAAGKDIALANKETLIAGAPVVLPLVEKMGVKLLPADSEHSAIFQCLQGVPEGGLRRIILTASGGAFRDLPVERLPFVTVQDALKHPNWSMGQKITIDSATLMNKGLEVIEAHYLFGLDYDHIDIVIHPQSIIHSLIEVQDTSVLAQLGWPDMRLPLLYALSWPERIYTDWEPLDLVKAGSLSFREPDHDKYPCMQLAYGAGRAGGAMPAVLNAANEQAVALFLQEKISFLDIPRLIEKTCDLYVGQNTASPDLETILAADQWARRTVLENSACVATRP |  |  | 690 µM

Continued by falling Ki [1], values first:

Ki [1] | Ki [2] | Molecule | Km [3]
150 µM | 800 µM | CC(=O)C[C@H](O)COP(=O)(O)O | 
90 µM |  | NC(=O)[C@@H](O)[C@H](O)COP(=O)(O)O | 
30 µM | 120 µM | CC(=O)[C@@H](O)CCOP(=O)(O)O | 
0.021 µM |  | O=CN(O)CCCP(=O)(O)O [FOSMIDOMYCIN] | 
